For this experiment, the species on record is Mus musculus. The experiment can be described thus: Antiplatelet activity in ICR mouse platelet rich plasma assessed as inhibition of PAR4-AP-induced platelet aggregation pretreated for 5 mins followed by PAR4-AP addition by aggregometric analysis. It counts as functional.
Take `COc1cc(OCc2nc(N3CCOCC3)sc2C)c2cc(-c3cn4nc(OC)sc4n3)oc2c1`: the IC50 is 7.8 nM.
As to `[2H]C(Oc1cc(OC)cc2oc(-c3cn4nc(OC)sc4n3)cc12)c1nc(N2CCOCC2)sc1C` (stereo not drawn), the IC50 came out at 14.5 nM.
Regarding `[2H]C([2H])([2H])Oc1cc(OCc2nc(N3CCOCC3)sc2C)c2cc(-c3cn4nc(OC([2H])([2H])[2H])sc4n3)oc2c1`, the IC50 is 6.97 nM.
Take `[2H]C([2H])([2H])Oc1nn2cc(-c3cc4c(OCc5nc(N6CCOCC6)sc5C)cc(OC)cc4o3)nc2s1`: the IC50 was 8.74 nM.
With `[2H]C([2H])([2H])Oc1cc(OCc2nc(N3CCOCC3)sc2C)c2cc(-c3cn4nc(OC)sc4n3)oc2c1` the figure was 6.3 nM; with `[2H]C(Oc1cc(OC([2H])([2H])[2H])cc2oc(-c3cn4nc(OC)sc4n3)cc12)c1nc(N2CCOCC2)sc1C` (stereo not drawn), 8.15 nM; with `[2H]C(Oc1cc(OC([2H])([2H])[2H])cc2oc(-c3cn4nc(OC([2H])([2H])[2H])sc4n3)cc12)c1nc(N2CCOCC2)sc1C` (stereo not drawn), 9.45 nM.
The result for `[2H]C(Oc1cc(OC)cc2oc(-c3cn4nc(OC([2H])([2H])[2H])sc4n3)cc12)c1nc(N2CCOCC2)sc1C` (stereo not drawn) reads 7.69 nM.

A word on the IC50: it is the concentration that inhibits the measured activity by half.
